Data from the supplement of paper PMC10307832.

What was measured:
Assay in all cases: relative viability (nuclei count vs DMSO), 5 days (fraction); higher = more cells survive
Ibrutinib + Linsitinib = compound: C=CC(=O)N1CCC[C@@H](n2nc(-c3ccc(Oc4ccccc4)cc3)c3c(N)ncnc32)C1 [Ibrutinib] + C[C@]1(O)C[C@@H](c2nc(-c3ccc4ccc(-c5ccccc5)nc4c3)c3c(N)nccn32)C1 [Linsitinib] (partner 1 µM)
In short: (§1)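 Relative viability was taken as the ratio of nuclei in treated wells to nuclei in vehicle wells. Lung cancer cell lines in 1536-well plates received compounds by pin tool one day after seeding, either one drug alone or a fixed anchor-drug dose plus five library-drug doses (not always all listed) in √10 steps. Nuclei were counted on 4× images after 5 days of treatment, and values are medians of duplicate plates.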

BMX-IN-1 + Foretinib = compound: C=CC(=O)Nc1cc(-n2c(=O)ccc3cnc4ccc(-c5ccc(NS(C)(=O)=O)cc5)cc4c32)ccc1C [BMX-IN-1] + COc1cc2c(Oc3ccc(NC(=O)C4(C(=O)Nc5ccc(F)cc5)CC4)cc3F)ccnc2cc1OCCCN1CCOCC1 [Foretinib] (partner 0.25 µM)
In short: as §1

BMX-IN-1 + Decitabine = compound: C=CC(=O)Nc1cc(-n2c(=O)ccc3cnc4ccc(-c5ccc(NS(C)(=O)=O)cc5)cc4c32)ccc1C [BMX-IN-1] + Nc1ncn([C@H]2C[C@H](O)[C@@H](CO)O2)c(=O)n1 [Decitabine] (partner 2 µM)
In short: as §1

PAC-1 + Alpelisib = compound: C=CCc1cccc(/C=N/NC(=O)CN2CCN(Cc3ccccc3)CC2)c1O [PAC-1] + Cc1nc(NC(=O)N2CCC[C@H]2C(N)=O)sc1-c1ccnc(C(C)(C)C(F)(F)F)c1 [Alpelisib] (partner 2 µM)
In short: as §1

Cell Line	relative viability (Ibrutinib + Linsitinib; first compound 0.005 µM)	relative viability (Ibrutinib + Linsitinib; first compound 0.01581 µM)	relative viability (Ibrutinib + Linsitinib; first compound 0.05 µM)	relative viability (Ibrutinib + Linsitinib; first compound 0.1581 µM)	relative viability (Ibrutinib + Linsitinib; first compound 0.5 µM)	relative viability (BMX-IN-1 + Foretinib; first compound 0.02 µM)	relative viability (BMX-IN-1 + Foretinib; first compound 0.2 µM)	relative viability (BMX-IN-1 + Foretinib; first compound 0.6325 µM)	relative viability (BMX-IN-1 + Foretinib; first compound 2 µM)	relative viability (BMX-IN-1 + Decitabine; first compound 0.02 µM)	relative viability (BMX-IN-1 + Decitabine; first compound 0.2 µM)	relative viability (BMX-IN-1 + Decitabine; first compound 0.6325 µM)	relative viability (BMX-IN-1 + Decitabine; first compound 2 µM)	relative viability (PAC-1 + Alpelisib; first compound 0.02 µM)	relative viability (PAC-1 + Alpelisib; first compound 0.06325 µM)	relative viability (PAC-1 + Alpelisib; first compound 0.2 µM)	relative viability (PAC-1 + Alpelisib; first compound 2 µM)
NCI-H2085	1.04	0.884	0.865	0.895	0.775	0.978	0.847	0.763	0.804	0.553	0.595	0.564	0.597	0.949	0.944	0.921	0.916
HCC-78	0.555	0.489	0.432	0.485	0.33	0.626	0.544	0.587	0.545	0.743	0.766	0.789	0.802	0.308	0.373	0.368	0.303
NCI-H647	1.05	0.995	1.15	1.14	1.1	1.32	1.58	1.14	1.21	0.407	0.502	0.479	0.462	0.995	1.08	1.14	0.709
NCI-H1299	0.497	0.993	0.961	0.966	1.03	1.12	1.06	1.16	1.06					1.06	1	1.02	1.01
LU99A	0.504	0.51	0.497	0.54	0.521	0.828	0.776	0.842	0.817	0.922	0.855	1.13	0.882	0.528	0.508	0.495	0.472
A549		0.58	0.519	0.505	0.377	1.14	0.971	1.2	0.982	0.289	0.115	0.284	0.293	0.718	0.727	0.694	0.707
HARA	1.09	0.818	0.751	0.904		1.43	1.27	0.936	0.799	0.752	0.575	0.664	0.704	0.735	0.809	0.779	0.928
NCI-H1944	1.05	1.01	1.23	1.05	0.568	0.972	0.83	0.976	0.905	0.459	0.402	0.481	0.426	0.78	0.849	0.813	0.752
LCLC-103H	1.28	1.16	1.09	1.1	1.03	0.879	0.78	0.882	0.735	0.795	0.782	0.714	0.689	0.861	0.864	1.05	0.928
NCI-H1792	0.553	0.44	0.506	0.608	0.53					0.539	0.615	0.525	0.568	0.717	0.77	0.722	0.677
Calu-6	0.991		0.928	1.04	0.888	0.918	1.07	0.908	0.776					0.929	1.03	0.931	1.13
SW 900						0.815	0.944	0.757	0.802	0.564	0.51	0.461	0.539				
LOU-NH91	0.834	0.733	0.739	0.892	0.492	0.938		1.01	0.942		0.799	0.842	0.828	0.706	0.739	0.692	0.738
HCC-366	0.634	0.614	0.662	0.51	0.614	1.03	0.962	1.01	0.886	0.356	0.378	0.416	0.39	0.409	0.52	0.335	0.437
CAL-12T	0.805	0.724	0.627	0.739	0.472	1.28	1.2	1.31	1.1					1.13	1.18	1.16	1.37
NCI-H1355		0.666	0.713	0.885	0.67	1.1	1.15	0.921	0.977	0.357	0.368	0.355	0.401	0.861	0.809	0.753	0.822
ABC-1	0.822	0.736	0.795	0.879	0.644	1.21	0.999	1.19	0.955	1.22	1.31	1.15	1.16	1.11	1.06	1.1	1.28
NCI-H2405	0.849	0.801	0.929		0.869	1.04	1.1	1.11	1.03	0.702	0.723	0.851	0.716	0.811	0.9	0.774	0.873
NCI-H1648										0.511	0.467	0.616	0.506				
NCI-H650		0.688		1.19	0.889	1.06	1.01	1.12	1.1	0.321	0.303	0.318	0.346	1.09	1.23	1.23	1.17
NCI-H2228	0.62	0.689	0.71	0.936	0.454	1.19	1.08	1.03	0.916					0.611	0.672	0.593	0.753
EPLC-272H		1.07	1.31	1.25	0.771	0.851	0.759	0.622	0.592	0.29	0.397	0.407	0.355		0.96	0.817	0.764
